Data published in the supplement of paper PMC10307832.

Columns and labels:
Assay in all cases: relative viability (nuclei count vs DMSO), 5 days (fraction); higher = more cells survive
[1] = compound: Cc1ccc2nc(NCCN)c3ncc(C)n3c2c1 + CCNC(=O)c1noc(-c2cc(C(C)C)c(O)cc2O)c1-c1ccc(CN2CCOCC2)cc1 [Luminespib] (partner 0.01 µM)
Summary of the method: (§1)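 Nuclei were stained with Hoechst during a one-step fixation (final 0.05% Triton X-100, 1% formaldehyde, 1 ug/ml Hoechst) carried out 5 days after dosing, then counted on 4× images. The cells, lung cancer lines in 1536-well plates, had been dosed by pin tool the day after seeding with one drug alone or a fixed anchor-drug dose plus five library-drug doses (not always all listed) in √10 steps. Relative viability is the nuclei count in treated wells divided by that in vehicle wells, and each value is the median of duplicate plates.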

[2] = compound: Cc1ccc2nc(NCCN)c3ncc(C)n3c2c1 + O=C(c1cc(Cc2n[nH]c(=O)c3ccccc23)ccc1F)N1CCN(C(=O)C2CC2)CC1 [Olaparib] (partner 8 µM)
Summary of the method: as §1

Salubrinal + Pictilisib = compound: O=C(/C=C/c1ccccc1)NC(NC(=S)Nc1cccc2cccnc12)C(Cl)(Cl)Cl [Salubrinal] + CS(=O)(=O)N1CCN(Cc2cc3nc(-c4cccc5[nH]ncc45)nc(N4CCOCC4)c3s2)CC1 [Pictilisib] (partner 1 µM)
Summary of the method: as §1

Salubrinal + AZD7762 = compound: O=C(/C=C/c1ccccc1)NC(NC(=S)Nc1cccc2cccnc12)C(Cl)(Cl)Cl [Salubrinal] + NC(=O)Nc1cc(-c2cccc(F)c2)sc1C(=O)N[C@H]1CCCNC1 [AZD7762] (partner 0.2 µM)
Summary of the method: as §1

Cell Line | relative viability ([1]; first compound 0.04 µM) | relative viability ([1]; first compound 0.1265 µM) | relative viability ([1]; first compound 0.4 µM) | relative viability ([1]; first compound 1.265 µM) | relative viability ([1]; first compound 4 µM) | relative viability ([2]; first compound 0.04 µM) | relative viability ([2]; first compound 0.1265 µM) | relative viability ([2]; first compound 0.4 µM) | relative viability ([2]; first compound 1.265 µM) | relative viability ([2]; first compound 4 µM) | relative viability (Salubrinal + Pictilisib; first compound 0.08 µM) | relative viability (Salubrinal + Pictilisib; first compound 0.253 µM) | relative viability (Salubrinal + Pictilisib; first compound 0.8 µM) | relative viability (Salubrinal + Pictilisib; first compound 2.53 µM) | relative viability (Salubrinal + Pictilisib; first compound 8 µM) | relative viability (Salubrinal + AZD7762; first compound 0.08 µM) | relative viability (Salubrinal + AZD7762; first compound 0.253 µM) | relative viability (Salubrinal + AZD7762; first compound 0.8 µM) | relative viability (Salubrinal + AZD7762; first compound 2.53 µM) | relative viability (Salubrinal + AZD7762; first compound 8 µM)
NCI-H838 | 0.362 | 0.344 | 0.324 | 0.3 | 0.258 | 0.791 | 0.717 | 0.709 | 0.759 | 0.696 | 0.361 | 0.408 | 0.496 | 0.435 | 0.282 | 0.961 | 0.957 | 1.06 | 0.962 | 0.951
NCI-H1755 | 0.42 | 0.359 | 0.339 | 0.288 | 0.48 | 0.859 | 0.878 | 0.835 | 0.903 | 0.791 | 0.564 | 0.417 | 0.535 | 0.431 | 0.401 | 0.668 | 0.406 | 0.517 | 0.41 | 0.584
HCC-78 | – | – | – | – | – | 0.746 | 0.861 | 0.655 | 0.587 | 0.766 | 0.195 | 0.0891 | 0.312 | 0.232 | 0.229 | 0.699 | 0.599 | 0.758 | 0.613 | 0.538
IA-LM | – | – | – | – | – | 0.73 | 0.793 | 0.974 | 0.795 | 0.721 | 0.353 | 0.279 | 0.357 | 0.219 | 0.188 | – | – | – | – | –
NCI-H322M | 0.908 | 0.845 | 0.961 | 0.858 | 0.734 | 0.698 | 0.816 | 0.881 | 0.796 | 0.638 | 0.476 | 0.541 | 0.578 | 0.539 | 0.498 | 0.576 | 0.531 | 0.599 | 0.497 | 0.581
NCI-H3122 | 0.101 | 0.11 | 0.0776 | 0.0857 | 0.0976 | 0.653 | 0.67 | 0.507 | 0.582 | 0.579 | 0.565 | 0.633 | 0.657 | 0.694 | 0.663 | 1.16 | 0.979 | 1.07 | 1.1 | 1.05
COR-L23 | 0.682 | 0.644 | 0.763 | 0.47 | 0.625 | 0.348 | 0.351 | 0.397 | 0.321 | 0.328 | 0.946 | 0.666 | 0.899 | 0.676 | 0.432 | – | – | – | – | –
NCI-H1623 | 0.478 | 0.684 | 0.51 | 0.346 | 0.348 | – | – | – | – | – | – | – | – | – | – | – | – | – | – | –
NCI-H2023 | 0.782 | 0.68 | 0.764 | 0.782 | 0.264 | 0.503 | 0.56 | 0.541 | 0.458 | 0.254 | 0.22 | 0.278 | 0.289 | 0.277 | 0.208 | – | – | – | – | –
COR-L 105 | 0.921 | 0.529 | 0.603 | 0.57 | 0.497 | 0.656 | 0.883 | 0.665 | 0.533 | 0.642 | 0.419 | 0.358 | 0.406 | 0.349 | 0.421 | – | – | – | – | –
NCI-H520 | 0.204 | 0.216 | 0.231 | 0.191 | 0.235 | 0.308 | 0.368 | 0.323 | 0.304 | 0.266 | 0.376 | 0.212 | 0.338 | 0.302 | 0.316 | – | – | – | – | –
SK-LU-1 | 0.225 | 0.248 | 0.191 | 0.199 | 0.212 | 0.515 | 0.422 | 0.513 | 0.455 | 0.484 | 0.678 | 0.588 | 0.698 | 0.647 | 0.519 | – | – | – | – | –
NCI-H522 | 1.26 | 1.12 | 1.04 | 1.14 | 1.17 | 0.62 | 0.708 | 0.585 | 0.648 | 0.635 | – | – | – | – | – | 0.99 | 0.808 | 0.957 | 0.808 | 0.908
NCI-H1299 | – | – | – | – | – | 0.973 | 0.965 | 0.985 | 0.891 | 0.767 | 0.911 | 0.704 | 0.874 | 0.698 | 0.66 | – | – | – | – | –
NCI-H1650 | 0.242 | 0.213 | 0.195 | 0.214 | 0.212 | 0.647 | 0.804 | 0.715 | 0.821 | 0.549 | 0.536 | 0.491 | 0.635 | 0.581 | 0.536 | – | – | – | – | –
NCI-H2009 | 1.03 | 1 | 1.05 | 1.01 | 0.792 | 0.666 | 0.661 | 0.666 | 0.71 | 0.549 | 0.976 | 0.857 | 1.02 | 0.756 | 0.749 | – | – | – | – | –
SW 900 | 0.168 | 0.161 | – | 0.149 | 0.167 | – | 0.865 | 0.884 | 0.874 | 0.827 | – | – | – | – | – | 0.612 | 0.579 | 0.687 | 0.585 | 0.421
SK-MES-1 | 0.835 | 0.791 | 0.74 | 0.772 | 0.74 | 0.716 | 0.736 | 0.745 | 0.669 | 0.468 | 0.435 | 0.339 | 0.356 | 0.305 | 0.335 | – | – | – | – | –
HCC-366 | – | – | – | – | – | 0.388 | 0.394 | 0.36 | 0.352 | 0.366 | 0.132 | 0.143 | 0.121 | 0.151 | 0.179 | 0.254 | – | 0.315 | 0.272 | 0.146
A549 | – | – | – | – | – | 0.409 | 0.406 | 0.333 | 0.317 | 0.301 | 0.585 | 0.419 | 0.517 | 0.436 | 0.35 | – | – | – | – | –
NCI-H661 | 0.932 | 0.94 | 0.929 | 0.98 | 0.8 | 0.78 | 0.815 | 0.701 | 0.661 | 0.631 | 0.434 | 0.196 | 0.443 | 0.384 | 0.569 | – | – | – | – | –
NCI-H1563 | 0.491 | 0.509 | 0.517 | 0.466 | 0.485 | – | – | – | – | – | 0.665 | 0.586 | 0.639 | 0.623 | 0.591 | – | – | – | – | –
